Results taken from patent publication US9708336B2, “Metallo-beta-lactamase inhibitors” (priority 2014, dated 2017).
pIC50: −log10 of the molar value. Like-named read-outs stand apart in the source and are kept apart here.

Assays:
IMP-1 = IMP-1 (Serratia marcescens, UniProt P52699); test: biochemical; format: biochemical; conditions: read-out: IMP-1 IC50
[1] = tested on: Escherichia coli expressing NDM-1 (CLB30005); test: Antibiotic potentiation activity: synergistic concentration (MITC95) with imipenem, OD600 growth; format: cell-based; conditions: for Escherichia coli expressing NDM-1 (CLB 30005) MITC95: concentration giving 95% inhibition of bacterial growth; for Escherichia coli MITC95: Escherichia coli expressing NDM-1 (CLB30005), 95% growth inhibition
How it was run: (§1)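 Test compound was combined with 4 μg/ml imipenem (or optionally 1 μg/ml), or with no antibiotic, against saline-suspended colonies diluted 1:100 in 1.1×CAMHB. Strains were E. coli NDM-1, S. marcescens IMP-1 and K. pneumoniae VIM-1. Plates were incubated 22–24 h at 35 °C before absorbance (OD600) readout.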

[2] = tested on: Klebsiella pneumoniae expressing VIM-1 (IHMA599644); test: as above; format: cell-based; conditions: for Klebsiella pneumoniae expressing VIM-1 (IHMA 599644) MITC95: concentration giving 95% inhibition of bacterial growth; for Klebsiella pneumoniae MITC95: Klebsiella pneumoniae expressing VIM-1 (IHMA599644), 95% growth inhibition
How it was run: as §1

[3] = tested on: Serratia marcescens expressing IMP-1 (CL5741); test: as above; format: cell-based; conditions: for Serratia marcescens expressing IMP-1 (CL5741) MITC95: concentration giving 95% inhibition of bacterial growth; for Serratia marcescens MITC95: Serratia marcescens expressing IMP-1 (CL5741), 95% growth inhibition
How it was run: as §1

NDM-1 = NDM-1 (Klebsiella pneumoniae, UniProt C7C422); test: biochemical; format: biochemical; conditions: read-out: NDM-1 IC50
Chain of NDM-1 (C7C422 whole entry, looked up, species assumed): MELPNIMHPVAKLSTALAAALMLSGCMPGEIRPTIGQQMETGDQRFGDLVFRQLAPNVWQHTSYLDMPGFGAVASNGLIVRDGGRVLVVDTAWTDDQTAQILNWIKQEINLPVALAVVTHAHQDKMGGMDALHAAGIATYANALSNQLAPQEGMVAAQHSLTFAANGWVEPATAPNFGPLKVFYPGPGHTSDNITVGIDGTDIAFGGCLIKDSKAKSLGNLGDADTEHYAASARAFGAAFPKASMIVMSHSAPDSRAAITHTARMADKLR

VIM-1 = VIM-1 (Pseudomonas aeruginosa (strain ATCC 15692 / DSM 22644 / CIP 104116 / JCM 14847 / LMG 12228 / 1C / PRS 101 / PAO1), UniProt A0A0F7KYQ8); test: Enzyme activity: determination of IC50, fluorescence assay with CCF2-FA substrate (VIM-1); format: biochemical
[4] = fluorescence assay with CCF2-FA substrate
[5] = fluorescence assay with CCF2-FA substrate, read-out: VIM-1 IC50
[6] = VIM-1 IC50, fluorescence assay with CCF2-FA substrate
[7] = IMP-1 enzyme, CCF2-FA fluorescence assay
[8] = NDM-1 enzyme, CCF2-FA fluorescence assay
[9] = VIM-1 enzyme, CCF2-FA fluorescence assay, read-out: VIM-1 IC50

Chain of IMP-1 (P52699 whole entry, looked up): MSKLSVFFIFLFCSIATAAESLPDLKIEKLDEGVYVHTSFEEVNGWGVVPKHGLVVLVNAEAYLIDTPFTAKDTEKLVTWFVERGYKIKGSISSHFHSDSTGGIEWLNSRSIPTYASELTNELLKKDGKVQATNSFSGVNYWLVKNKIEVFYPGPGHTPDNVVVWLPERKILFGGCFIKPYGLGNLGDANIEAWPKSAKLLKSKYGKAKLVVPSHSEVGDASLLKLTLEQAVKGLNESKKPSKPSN

Row | Compound | pIC50 (IMP-1; [4]) | Escherichia coli expressing NDM-1 (CLB 30005) MITC95 [1] | Klebsiella pneumoniae expressing VIM-1 (IHMA 599644) MITC95 [2] | Serratia marcescens expressing IMP-1 (CL5741) MITC95 [3] | pIC50 (NDM-1; [4]) | pIC50 (VIM-1; [5]) | pIC50 (VIM-1; [6]) | pIC50 (IMP-1; [7]) | Escherichia coli MITC95 [1] | Klebsiella pneumoniae MITC95 [2] | Serratia marcescens MITC95 [3] | pIC50 (NDM-1; [8]) | pIC50 (VIM-1; [9])
1 | CS(=O)(=O)c1ccc(-c2cccc(S(N)(=O)=O)c2-c2nn[nH]n2)cn1 [Example 58, 3-[6-(methylsulfonyl)pyridin-3-yl]-2-(2H-tetrazol-5-yl)benzenesulfonamide] | 6.64 | 0.5859 µM | 100 µM | 12.5 µM | 7.84 | 6.72 |  |  |  |  |  |  | 
2 | COc1ccc(-c2cccc(S(N)(=O)=O)c2-c2nn[nH]n2)cc1 [Example 8, 4′-methoxy-2-(2H-tetrazol-5-yl)biphenyl-3-sulfonamide] | 7.11 | 0.3906 µM | 200 µM | 3.125 µM | 8.40 |  | 7.10 |  |  |  |  |  | 
3 | NCCc1ccc(-c2cccc(S(N)(=O)=O)c2-c2nnn[nH]2)cn1 [Example 307, 3-(6-(2-aminoethyl)pyridin-3-yl)-2-(1H-tetrazol-5-yl)benzenesulfonamide] |  |  |  |  |  |  |  | 5.31 | 1.172 µM | 12.5 µM | 50 µM | 6.76 | 7.02
4 | Cc1ccc(-c2cc(-c3ccc(O)nc3)cc(S(N)(=O)=O)c2-c2nn[nH]n2)cc1 [Example 292, 5-(6-hydroxypyridin-3-yl)-4′-methyl-2-(2H-tetrazol-5-yl)-[1,1′-biphenyl]-3-sulfonamide] |  |  |  |  |  |  |  | 6.38 | 3.516 µM | >200 µM | 18.75 µM | 8.44 | 6.72
5 | NS(=O)(=O)c1cccc(-c2ccccc2)c1-c1nn[nH]n1 [Example 14, 2-(2H-tetrazol-5-yl)biphenyl-3-sulfonamide] | 6.76 | 0.3906 µM | 100 µM | 6.25 µM | 8.28 | 6.96 |  |  |  |  |  |  | 
6 | NS(=O)(=O)c1cccc(-c2ccc3[nH]nnc3c2)c1-c1nn[nH]n1 [Example 74, 3-(1H-benzotriazol-5-yl)-2-(2H-tetrazol-5-yl)benzenesulfonamide] | 5.79 | 0.9766 µM | 50 µM | 18.75 µM | 7.58 |  | 6.32 |  |  |  |  |  | 
7 | NS(=O)(=O)c1cccc(-c2ccc(C(=O)NCCO)cc2)c1-c1nn[nH]n1 [Example 17, N-(2-hydroxyethyl)-3′-sulfamoyl-2′-(2H-tetrazol-5-yl)biphenyl-4-carboxamide] | 7.06 | 0.7813 µM | 100 µM | 53.13 µM | 8.07 | 6.68 |  |  |  |  |  |  | 
8 | Cc1csc(-c2cccc(S(N)(=O)=O)c2-c2nn[nH]n2)n1 [Example 34, 3-(4-methyl-1,3-thiazol-2-yl)-2-(2H-tetrazol-5-yl)benzenesulfonamide] | 5.51 | 3.125 µM | >200 µM | 150 µM | 6.82 | 5.84 |  |  |  |  |  |  | 
9 | CC(c1ccc(-c2cccc(S(N)(=O)=O)c2-c2nn[nH]n2)cc1)N1CCOCC1 (stereo not drawn) [Example 4, 4′-(1-morpholin-4-ylethyl)-2-(2H-tetrazol-5-yl)biphenyl-3-sulfonamide] | 7.95 | 0.7813 µM | >200 µM | 6.25 µM | 8.55 | 6.71 |  |  |  |  |  |  | 
